Laboratory results: ChEMBL document CHEMBL5154666, “Small molecules with tetrahydroquinoline-containing Povarov scaffolds as inhibitors disrupting the Protein-RNA interaction of LIN28-let-7” (Eur J Med Chem, 2022)

Key:
[1] = Inhibition of Cy3-labeled mouse preE-let-7f-1 miRNA binding to human LIN28A (16 to 187 residues) expressed in Escherichia coli BL21 (DE3) at 75 uM preincubated for 2 hrs followed by miRNA addition and measured after 15 mins by electrophoretic mobility shift assay relative to control
JAR = assay: Antiproliferative activity against human JAR cells assessed as reduction in cell viability at 10 uM by MTT assay; format: functional
[2] = Inhibition of Cy3-labeled mouse preE-let-7f-1 miRNA binding to human LIN28A (16 to 187 residues) expressed in Escherichia coli BL21 (DE3) preincubated for 2 hrs followed by miRNA addition and measured after 15 mins by electrophoretic mobility shift assay
[3] = Inhibition of FAM-labeled mouse preE-let-7f-1 miRNA binding to human LIN28A (16 to 187 residues) expressed in Escherichia coli BL21 (DE3) by fluorescence polarization assay
[4] = Inhibition of FAM-labeled mouse preE-let-7f-1 miRNA binding to human LIN28A (16 to 187 residues) expressed in Escherichia coli BL21 (DE3) preincubated for 30 mins followed by miRNA addition by fluorescence polarization assay

Row | SMILES | inhibition [1] [%] | inhibition at 10 µM (JAR) [%] | other results
1 | CCOc1cccc2c1N(C(C)=O)[C@@H](c1ccc(C(=O)O)cc1)[C@H]1CCCN[C@@H]21 |  | 19 | 
2 | COc1cc2c(c(OC)c1OC)[C@@H]1C=CC[C@@H]1[C@H](c1ccc(C(=O)O)cc1)N2 | < 5 |  | 
3 | CCOc1cccc2c1N[C@@H](c1ccc(C(=O)O)[nH]1)[C@H]1CC=C[C@@H]21 |  | 23 | 
4 | CCOC(=O)[C@@H]1Nc2c(OCC)cccc2[C@@H]2C=CC[C@H]12 | < 5 |  | 
5 | N#Cc1ccc2c(c1)[C@@H]1C=CC[C@@H]1[C@H](c1ccc(C(=O)O)cc1)N2 | < 5 |  | 
6 | CCOc1cccc2c1N[C@@H](c1cccnc1)[C@H]1CC=C[C@@H]21 | < 5 |  | 
7 | CCOc1cccc2c1N(C(C)=O)[C@@H](c1cccc(C(=O)O)c1)[C@H]1CC=C[C@@H]21 |  | 31 | 
8 | CC(=O)c1ccc2c(c1)N[C@@H](c1ccc(C(=O)O)cc1)[C@H]1CC=C[C@@H]21 | < 5 |  | 
9 | O=C(O)c1ccc([C@@H]2Nc3c(Cl)cc(Cl)cc3[C@@H]3C=CC[C@@H]32)cc1 | 34 |  | 
10 | CCOc1cccc2c1N(C(C)=O)[C@@H](c1ccc(C(=O)O)cc1)[C@H]1CCCN(C(=O)OC(C)(C)C)[C@@H]21 |  | 35 | 
11 | CCOc1cccc2c1N[C@H](c1ccc(C(=O)O)cc1)[C@@H]1CC=C[C@H]21 |  |  | IC50 [3]: 40 µM
12 | CC(=O)c1ccc2c(c1)[C@@H]1C=CC[C@@H]1[C@H](c1ccc(C(=O)O)cc1)N2 | < 5 |  | 
13 | O=C(O)c1cccc([C@@H]2Nc3c(OC(F)(F)F)cccc3[C@@H]3C=CC[C@@H]32)c1 |  | 20 | 

Second part, led by results:

Row | inhibition [1] [%] | SMILES | inhibition at 10 µM (JAR) [%] | other results
14 | < 5 | CCOc1cccc2c1N[C@@H](c1cccc(O)c1)[C@H]1CC=C[C@@H]21 |  | 
15 | < 5 | CCOc1cccc2c1N[C@@H](c1ccc(C(=O)OC)cc1)[C@H]1CC=C[C@@H]21 |  | 
16 | 86 | CCOc1cccc2c1N[C@@H](C(=O)O)[C@H]1CC=C[C@@H]21 | < 10 | IC50 [2]: 21.5 µM
17 | 53 | CCOc1cccc2c1N[C@@H](c1ccc(C(=O)O)cc1)[C@H]1CC=C[C@@H]21 | < 10 | IC50 [2]: 41.6 µM; IC50 [3]: 50 µM
18 | < 5 | CC(C)Oc1cccc2c1N[C@@H](c1ccc(C(=O)O)cc1)[C@H]1CC=C[C@@H]21 |  | 
19 | 86 | CCOc1cccc2c1N[C@@H](c1cccc(C(=O)O)c1)[C@H]1CC=C[C@@H]21 | < 10 | IC50 [4]: 4 µM; IC50 [2]: 21.9 µM
20 | < 5 | CCOc1cccc2c1N[C@@H](c1ccc(C(F)(F)F)cc1)[C@H]1CC=C[C@@H]21 |  | 
21 | < 5 | COc1cccc2c1N[C@@H](c1ccc(C(=O)O)cc1)[C@H]1CC=C[C@@H]21 |  | 
22 | < 5 | CCOc1cccc2c1N[C@@H](c1ccc(C#N)cc1)[C@H]1CC=C[C@@H]21 |  | 
23 | < 5 | CCOc1cccc2c1N[C@@H](c1ccc([N+](=O)[O-])cc1)[C@H]1CC=C[C@@H]21 |  | 
